Test results published in article PMC9000336, “Development of Bicyclo[3.1.0]hexane-Based A3 Receptor Ligands: Closing the Gaps in the Structure–Affinity Relationships” (Molecules, 2022).
Like-named read-outs stand apart in the source and are kept apart here.

Tests used:
[1] = molecular target: T1, human adenosine A1 receptor (Homo sapiens, UniProt P30542); test: Radioligand displacement assay, human adenosine A1 receptor ([3H]DPCPX, CHOhA1R membranes); assay type: binding; details: for inhibition at 10 µM: test compound 10 µM; for Ki: [3H]DPCPX, read-out: A1 Ki ± SEM
T1 construct: expressed in transfected cells; host or cells: CHO cells (CHOhA1R), gift of Prof; S. J. Hill; membrane preparation
T1 sequence (P30542 1-326): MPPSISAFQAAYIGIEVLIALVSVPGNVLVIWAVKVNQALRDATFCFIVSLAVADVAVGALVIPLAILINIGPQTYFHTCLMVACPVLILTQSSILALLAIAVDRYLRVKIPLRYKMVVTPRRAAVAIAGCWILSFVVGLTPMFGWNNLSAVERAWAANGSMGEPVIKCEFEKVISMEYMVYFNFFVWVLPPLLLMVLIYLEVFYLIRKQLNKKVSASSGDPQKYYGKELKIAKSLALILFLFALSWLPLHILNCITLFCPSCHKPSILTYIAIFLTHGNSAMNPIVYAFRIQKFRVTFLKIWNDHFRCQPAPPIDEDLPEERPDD
Method: Chinese hamster ovary (CHO) cells stably expressing the human adenosine A1 receptor (CHOhA1R) were kindly provided by Prof. S. J. Hill and CHO cells stably expressing the human adenosine A3 receptor (CHOhA3R) were a gift from Dr. K.-N. Klotz (University of Würzburg, Germany). Chinese hamster ovary cells stably expressing the human A1-receptor (CHOhA1R) or the human A3-receptor (CHOhA3R) were grown in Dulbecco’s Modified Eagle’s Medium (DMEM) and Ham’s F12 medium (1:1) supplemented with 10% (v/v) newborn calf serum, 50 µg/mL streptomycin, 50 IU/mL penicillin, and 200 µg/mL G418 at 37 °C and 5% CO2. […] All cells were grown to 80–90% confluency and detached from plates by scraping them into 5 mL phosphate-buffered saline. Detached cells were collected and centrifuged at 200 g for 5 min. Pellets derived from 100 15 cm Ø plates were pooled and resuspended in 70 mL of ice-cold 50 mM tris(hydroxymethyl)aminomethane (Tris)-HCl buffer, pH 7.4. A Heidolph Diax 900 homogenizer was used to homogenize the cell suspension. Membranes and the cytosolic fraction were separated by centrifugation at 100,000 g in a Beckman Optima LE-80 K ultracentrifuge (Beckman Coulter, Fullerton, CA, USA) at 4 °C for 20 min. The pellet was resuspended in 35 mL of the Tris-HCl buffer, and the homogenization and centrifugation steps were repeated. Tris-HCl buffer (25 mL) was used to resuspend the pellet, and adenosine deaminase (ADA) was added (0.8 U/mL) to break down endogenous adenosine. Membranes were stored in 250 µL and 500 µL aliquots at −80 °C. Total protein concentrations were measured using the bicinchoninic acid (BCA) method.
A1 Receptor: Membrane aliquots containing 5 µg (CHOhA1R) protein were incubated in a total volume of 100 µL assay buffer (50 mM Tris-HCl, pH 7.4) at 25 °C for 1 h. […] Nonspecific binding was determined in the presence of 100 µM N^6-cyclopentyladenosine (CPA). Incubations were terminated by rapid vacuum filtration to separate the bound and free radioligand through prewetted 96-well GF/B filter plates using a PerkinElmer Filtermate-harvester (Perkin Elmer, Groningen, the Netherlands). Filters were subsequently washed 12 times with ice-cold 50 mM Tris-HCl, pH 7.4.
(§1) The plates of all four adenosine receptor assays were dried at 55 °C after which MicroscintTM-20-cocktail was added (Perkin Elmer, Groningen, The Netherlands).
(§2) All experimental data were analyzed using the non-linear regression curve fitting program GraphPad Prism 7.0 (GraphPad Software Inc., San Diego, CA, USA). IC50 values obtained from competition displacement binding data were converted into Ki values using the Cheng–Prusoff equation.

[2] = molecular target: T2, hA2B receptor (Homo sapiens, UniProt P29275); test: Radioligand displacement assay, human adenosine A2B receptor ([3H]PSB-603, CHO-spap-hA2BR membranes); assay type: binding
T2 construct: expressed in transfected cells; host or cells: CHO-spap cells (CHO-spap-hA2BR), from S. J. Dowell (GlaxoSmithKline); membrane preparation
T2 sequence (P29275 1-332): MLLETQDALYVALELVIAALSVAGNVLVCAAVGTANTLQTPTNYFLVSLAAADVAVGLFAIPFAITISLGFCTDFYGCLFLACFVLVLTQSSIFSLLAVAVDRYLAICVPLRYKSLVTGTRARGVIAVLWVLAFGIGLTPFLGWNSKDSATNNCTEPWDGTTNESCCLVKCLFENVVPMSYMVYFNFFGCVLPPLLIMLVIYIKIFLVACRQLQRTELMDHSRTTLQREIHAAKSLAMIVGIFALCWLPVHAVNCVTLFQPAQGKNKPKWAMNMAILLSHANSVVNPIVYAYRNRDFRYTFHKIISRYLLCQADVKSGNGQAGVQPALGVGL
Method: Human embryonic kidney 293 cells stably expressing the human adenosine A2A receptor (HEK293hA2AR) were kindly provided by Dr. J. Wang (Biogen/IDEC, Cambridge, MA, USA), CHO-spap cells stably expressing the wild-type (WT) hA2B receptor (CHO-spap-hA2BR) were kindly provided by S. J. Dowell (GlaxoSmithKline, Brentfort, UK).
Chinese hamster ovary cells stably expressing the […] and a reporter gene, the secreted placental alkaline phosphatase, (CHO-spap-hA2BR) were grown in DMEM and Ham’s F12 medium (1:1) supplemented with 10% (v/v) newborn calf serum, 100 µg/mL streptomycin, 100 IU/mL penicillin, 1 mg/mL G418, and 0.4 mg/mL hygromycin at 37 °C and 5% CO2.
All cells were grown to 80–90% confluency and detached from plates by scraping them into 5 mL phosphate-buffered saline. Detached cells were collected and centrifuged at 200 g for 5 min. Pellets derived from 100 15 cm Ø plates were pooled and resuspended in 70 mL of ice-cold 50 mM tris(hydroxymethyl)aminomethane (Tris)-HCl buffer, pH 7.4. A Heidolph Diax 900 homogenizer was used to homogenize the cell suspension. Membranes and the cytosolic fraction were separated by centrifugation at 100,000 g in a Beckman Optima LE-80 K ultracentrifuge (Beckman Coulter, Fullerton, CA, USA) at 4 °C for 20 min. The pellet was resuspended in 35 mL of the Tris-HCl buffer, and the homogenization and centrifugation steps were repeated. Tris-HCl buffer (25 mL) was used to resuspend the pellet, and adenosine deaminase (ADA) was added (0.8 U/mL) to break down endogenous adenosine. Membranes were stored in 250 µL and 500 µL aliquots at −80 °C. Total protein concentrations were measured using the bicinchoninic acid (BCA) method.
A2B Receptor: Membrane aliquots containing 30 µg (CHO-spap-hA2BR) total protein were incubated in a total volume of 100 µL assay buffer (0.1% CHAPS in 50 mM TrisHCl, pH 7.4) at 25 °C for 2 h. […] Nonspecific binding was determined in the presence of 10 µM ZM241385. Incubations were terminated by rapid vacuum filtration to separate the bound and free radioligand through prewetted 96-well GF/B filter plates using a PerkinElmer Filtermate-harvester (Perkin Elmer, Groningen, the Netherlands). Filters were subsequently washed 12 times with ice-cold 0.1% BSA in 50 mM Tris-HCl, pH 7.4.
as §1, §2

[3] = n = 3, [3H]PSB-603, read-out: A2B Ki ± SEM

| inhibition at 10 µM ([1]; n = 3) [%] | Ki [2, 3] [µM] | Compound | other results |
| --- | --- | --- | --- |
| 21 | > 10 | CSc1nc(N(Cc2ccccc2)Cc2ccccc2)c2ncn([C@H]3[C@H](O)[C@H](O)[C@]4(CCl)C[C@H]34)c2n1 [Compound 31, (1S,2R,3S,4R,5S)-4-[6-(Dibenzylamino)-2-methylthio-9H-purin-9-yl]-1-(chloromethyl)bicyclo[3.1.0]hexane-2,3-diol] | – |
| – | > 10 | Nc1ncnc2c1ncn2[C@H]1[C@H](O)[C@H](O)[C@]2(CO)C[C@H]12 [Compound 36, (N)-methanocarba adenosine] | Ki ([1]; n = 3): 6.1 ± 0.46 µM; fold lower affinity towards A1 receptor than A3 ([1]; relative to A3 Ki): 6 fold; affinity at the A2B subtype [2]: no affinity |
| 5 | > 10 | CSc1nc(N)c2ncn([C@H]3[C@H](O)[C@H](O)[C@]4(Cn5cc(CO)nn5)C[C@H]34)c2n1 [Compound 39, (1R,2R,3S,4R,5S)-4-(6-Amino-2-methylthio-9H-purin-9-yl)-1-{[4-(hydroxymethyl)-1H-1,2,3-triazol-1-yl]methyl}bicyclo[3.1.0]hexane-2,3-diol] | – |
| 7 | > 10 | COC(=O)c1cn(C[C@@]23C[C@@H]2[C@@H](n2cnc4c(N)nc(SC)nc42)[C@H](O)[C@@H]3O)nn1 [Compound 40, Methyl 1-{[(1R,2R,3S,4R,5S)-4-(6-amino-2-methylthio-9H-purin-9-yl)-2,3-dihydroxybicyclo[3.1.0]hex-1-yl]methyl}-1H-1,2,3-triazole-4-carboxylate] | – |

The next lines start with the molecule.

| Compound | inhibition at 10 µM ([1]; n = 3) [%] | Ki [2, 3] [µM] | other results |
| --- | --- | --- | --- |
| Nc1cc(Cl)c2ncn([C@H]3[C@H](O)[C@H](O)[C@]4(CO)C[C@H]34)c2n1 [Compound 11, (1R,2R,3S,4R,5S)-4-(5-Amino-7-chloro-3H-imidazo[4,5-b]pyridin-3-yl)-1-(hydroxymethyl)bicyclo[3.1.0]hexane-2,3-diol] | 5 | > 10 | – |
| OC[C@@]12C[C@@H]1[C@@H](n1cnc3c(Cl)cc(Cl)nc31)[C@H](O)[C@@H]2O [Compound 12, (1R,2R,3S,4R,5S)-4-(5,7-Dichloro-3H-imidazo[4,5-b]pyridin-3-yl)-1-(hydroxymethyl)bicyclo[3.1.0]hexane-2,3-diol] | – | > 10 | Ki ([1]; n = 3): > 10 µM |
| OC[C@@]12C[C@@H]1[C@@H](n1cnc3c(NCc4ccccc4)cc(Cl)nc31)[C@H](O)[C@@H]2O [Compound 13, (1R,2R,3S,4R,5S)-4-[7-(Benzylamino)-5-chloro-3H-imidazo[4,5-b]pyridin-3-yl]-1-(hydroxymethyl)bicyclo[3.1.0]hexane-2,3-diol] | 25 | > 10 | – |
| CSc1cc(NCc2ccccc2)c2ncn([C@H]3[C@H](O)[C@H](O)[C@]4(CO)C[C@H]34)c2n1 [Compound 14, (1R,2R,3S,4R,5S)-4-[7-(Benzylamino)-5-methylthio-3H-imidazo[4,5-b]pyridin-3-yl]-1-(hydroxymethyl)bicyclo[3.1.0]hexane-2,3-diol] | 20 | > 10 | – |
| COc1ccc(CNc2cc(Cl)nc3c2ncn3[C@H]2[C@H](O)[C@H](O)[C@]3(CO)C[C@H]23)cc1 [Compound 15, (1R,2R,3S,4R,5S)-4-{5-Chloro-7-[(4-methoxy)benzylamino]-3H-imidazo[4,5-b]pyridin-3-yl}-1-(hydroxymethyl)bicyclo[3.1.0]hexane-2,3-diol] | 12 | > 10 | – |
| Nc1cc(Cl)nc2c1ncn2[C@H]1[C@H](O)[C@H](O)[C@]2(CO)C[C@H]12 [Compound 16, (1R,2R,3S,4R,5S)-4-(7-Amino-5-chloro-3H-imidazo[4,5-b]pyridin-3-yl)-1-(hydroxymethyl)bicyclo[3.1.0]hexane-2,3-diol] | 32 | > 10 | – |
| CSc1cc(N)c2ncn([C@H]3[C@H](O)[C@H](O)[C@]4(CO)C[C@H]34)c2n1 [Compound 17, (1R,2R,3S,4R,5S)-4-(7-Amino-5-methylthio-3H-imidazo[4,5-b]pyridin-3-yl)-1-(hydroxymethyl)bicyclo[3.1.0]hexane-2,3-diol] | 23 | > 10 | – |
| OC[C@@]12C[C@@H]1[C@@H](n1cnc3c(N(Cc4ccccc4)Cc4ccccc4)ncnc31)[C@H](O)[C@@H]2O [Compound 26, (1R,2R,3S,4R,5S)-4-[6-(Dibenzylamino)-9H-purin-9-yl]-1-(hydroxymethyl)bicyclo[3.1.0]hexane-2,3-diol] | 25 | – | A2B displacement at 10 µM ([2]; test compound 10 µM, n = 3): 12% |
| OC[C@@]12C[C@@H]1[C@@H](n1cnc3c(N(Cc4ccccc4)Cc4ccccc4)nc(Cl)nc31)[C@H](O)[C@@H]2O [Compound 27, (1R,2R,3S,4R,5S)-4-[6-(Dibenzylamino)-2-chloro-9H-purin-9-yl]-1-(hydroxymethyl)bicyclo[3.1.0]hexane-2,3-diol] | 15 | > 10 | – |
| CSc1nc(N(Cc2ccccc2)Cc2ccccc2)c2ncn([C@H]3[C@H](O)[C@H](O)[C@]4(CO)C[C@H]34)c2n1 [Compound 30, (1R,2R,3S,4R,5S)-4-[6-(Dibenzylamino)-2-methylthio-9H-purin-9-yl]-1-(hydroxymethyl)bicyclo[3.1.0]hexane-2,3-diol] | 30 | > 10 | – |
| COC(=O)Cc1cn(C[C@@]23C[C@@H]2[C@@H](n2cnc4c(N)nc(SC)nc42)[C@H](O)[C@@H]3O)nn1 [Compound 41, Methyl 2-(1-{[(1R,2R,3S,4R,5S)-4-(6-amino-2-methylthio-9H-purin-9-yl)-2,3-dihydroxybicyclo[3.1.0]hex-1-yl]methyl}-1H-1,2,3-triazol-4-yl)acetate] | – | – | A1 displacement at 1 µM ([1]; footnote a: test compound 1 µM, n = 3): 2% ^a; Ki ([2]; footnote a: tested at 1 µM, n = 3, read-out: A2B Ki (bound, footnote a)): > 1 µM |
